Test results taken from patent US20240100068A1, “METHODS COMPRISING ADMINISTRATION OF A GLUCOCORTICOID RECEPTOR AGONIST AND AN INHIBITOR OF CALCINEURIN” (Chengdu Anticancer Bioscience, Ltd., priority 2022, published 2024).
Entries after “also recorded” stand apart in the source; their conditions may differ. Read-outs that look alike come from different tables or passages of the source.

Columns and labels:
T2MycNick cells [1] = test: Testing compounds for their ability of restoring contact inhibition (vacuolation, cell density); type: cell-based, murine; conditions: for minimal effective concentration: T2MycNick cells grown beyond confluence, 7-14 days; for diameters of large vacuoles: cells that overgrew beyond confluence; for contact inhibition restoration (CIR) activity: high-density cells
T2MycNick cells [2] = test: Proliferation and viability of cells cultured under sub-confluence; type: cell-based, murine; conditions: for effect on proliferation and viability: cells grown at sub-confluence
Protocol: (§1) FIG. 1A is a graph showing that DEX has no effect on the viability of murine liver cancer cell lines cultured under sub-confluence. The isogenic murine liver cancer cell lines T2Puro and T2MycNick were passaged and exposed to vehicle or 2 μM of DEX at a confluence of 10%. The cell viability was assayed with Trypan blue exclusion assays at day 3.
FIG. 1C is a graph showing DEX has no effect on the proliferation of murine liver cancer cell lines cultured under sub-confluence the live cell number was calculated daily with an automatic Luna cell counter and relative cell number was shown for T2MycNick.
Exponentially growing murine cells expressing Myc-Nick (T2MycNick cells) were passaged into 24-well plates at a final confluence of 20% and were allowed to attach overnight before being exposed to a test compound at a concentration of 10 μM. T2MycNick cells were generated by expressing the Myc-nick, the N-terminal of the Myc protein, in the T2 cell line, which was, in turn, derived from a MYC-driven mouse liver cancer (Shachaf et al., Nature 2004 Oct. 28; 431(7012):1112-7). The cells were subjected to daily analysis of viability and morphology under an inverted tissue culture microscope or GE InCell Analyzer 2000. Cell density was documented after staining of DNA with PI 7-10 days after the initiation of treatment.

MycNick cells [3] = test: MTT assay for cellular proliferation; type: cell-based, murine; conditions: confluence of 20-30%, 1 nM to 5 μM
MycNick cells [4] = test: Soft agar colony formation assay (anchorage-independent growth); type: cell-based, murine; conditions: FIG. 9: 2 μM of DEX or 5 μM of HC, up to 22 days
Protocol: FIG. 9. are images (left) and graphs (right) showing both Hydrocortisone and Dexamethasone suppress the anchorage-independent growth of T2MycNick cells. The T2MycNick cells were mixed with 0.35% soft agar and transferred to 24-well microplates 24 hours before exposed to vehicle, 2 μM of DEX or 5 μM of HC. Images were acquired with an inverted tissue culture microscope at 1, 9 and 22 days after initiation of drug treatment. The sizes of spheroids were quantified with Image J (right).
The soft agar colony formation assay was performed in 6-well plates with two layers of agar. For the first, 0.75% agar in DMEM medium was melted in a microwave oven and poured to form a bottom layer. Once solidified, 10-100K cells in 1 ml of DMEM containing 0.35% agar was added to form the top layer, which was later covered with 0.5 ml of DMEM. Cell culture medium was changed once every two days until colonies were ready to photograph. The antitumor activity of Hydrocortisone and Dexamethasone was tested in soft agar assays. […] The suppression of growth of the cell line in 3D culture is consistent with the suppressive impact of these compounds on cell density when cells were allowed to grow beyond confluence.

[5] = system: murine lung cancer cell line TA2280; test: Final cell density and vacuolation in lung cancer cell line TA2280; type: cell-based; conditions: for final cell density: 2 weeks
Source text: (§2) FIG. 5A. are images showing Hydrocortisone and Dexamethasone reduce the final cell density in a murine lung cancer cell line TA2280. The cells were exposed to vehicle or the indicated concentrations of either Hydrocortisone or Dexamethasone for 2 weeks. The cells were then fixed and stained with PI for nuclei to reveal the cell density.

[6] = system: human lung cancer cell line A549; test: Final cell density and vacuolation in lung cancer cell line A549; type: cell-based; conditions: for final cell density: 2 weeks
Protocol: as §2, with “5B” for “5A.”, “are graphs and” for “are”, “a” for “a murine”, “A549 and a breast cancer cell line MDA-MB-231).” for “TA2280.”, “then either numerated with a Luna cell counter or” for “then”
Cells were treated for 10 days with Hydrocortisone and a Calcineurin inhibitor either individually or in combination and then stained with PI for DNA before imaged with an EVOS FL auto microscope.

[7] = system: breast cancer cell line MDA-MB-231; test: Final cell density and vacuolation in breast cancer cell line MDA-MB-231; type: cell-based; conditions: for final cell density: 2 weeks
Source text: as §2, with “5B” for “5A.”, “are graphs and” for “are”, “a” for “a murine”, “A549 and a breast cancer cell line MDA-MB-231).” for “TA2280.”, “then either numerated with a Luna cell counter or” for “then”

T2Puro [8] = test: Restoration of contact inhibition and induction of vacuolation in control cell line; type: cell-based, murine; conditions: FIG. 6A: 7 days, 2 μM of DEX
Protocol: (§3) The indicated cell isogenic cell lines were exposed for 7 days to 2 μM of DEX. The cells were then imaged under an inverted tissue culture microscope (top left) or an EVOS FL Auto microscope after staining with Acridine Orange (bottom left). The area occupied by drug-induced vacuoles was quantified with Image J and data (bottom right). At the endpoint, the cells were also numerated with a Luna cell counter and relative cell number is shown (top right).

T2Bc1-xL cells = test: Restoration of contact inhibition and induction of vacuolation in Bc1-xL expressing cells; type: cell-based, murine; conditions: FIG. 6A: 7 days, 2 μM of DEX
Protocol: as §3

T2MycNick cells [9] = test: IF analysis of cell-cell junctions (ZO-1, β-catenin) in monolayer zones; type: cell-based, murine; conditions: 7 days
Protocol: FIG. 14A. Are images (left) and graphs (right) showing relocation of β-catenin to the cell-cell junctions in monolayer zones. The murine liver cancer cell line T2MycNick was treated with the indicated concentration of Hydrocortisone or Dexamethasone for 7 days before fixed for IF analysis of β-catenin. DNA was stained with DAPI. Images were acquired with an EVOS FL auto microscope. The relative signal density alone the line in each subpanel was quantified with Image J.
FIG. 14B. Are images (left) and graphs (right) showing relocation of ZO-1 to the cell-cell junctions in monolayer zones. […] The relative signal density alone the line in each subpanel was quantified with Image J. […]
The following are primary antibodies used in this study. […] Primary antibodies were detected with Rhodamine (TRITC)-conjugated AffiniPure Donkey Anti-Rabbit IgG (H+L) (Cat. # 711-025-152), Fluorescein(FITC)-conjugated Affinipure Goat Anti-Rabbit IgG (H+L) (Cat.#111-095-003), Alexa Fluor488 Affinipure Goat Anti-Mouse IgG (H+L) (Cat. #115-545-003 from Jackson ImmunoResearch at 1:500 dilution. After immunostaining, cells were mounted on microscope slides with 4′,6′-diamidino-2-phenylindole (DAPI)-containing Vectashield mounting solution (Vector Laboratories, Cat. # H1500). For fluorescence detection, an EVOS FL Auto microscope (Thermo Fisher) was used.

T2Puro [10] = test: Proliferation and viability of cells cultured under sub-confluence; type: cell-based, murine
Protocol: as §1
FIG. 1B is a graph showing DEX has no effect on the proliferation of murine liver cancer cell lines cultured under sub-confluence. The live cell number was calculated daily with an automatic Luna cell counter and relative cell number was shown for T2Puro.

Row | SMILES | diameters of large vacuoles (T2MycNick cells [1]) | contact inhibition restoration (CIR) activity (T2MycNick cells [1]) | effect on proliferation and viability (T2MycNick cells [2]) | anchorage-independent growth (MycNick cells [4]) | vacuolation [5] | final cell density [5] | vacuolation [6] | final cell density [6] | vacuolation [7] | final cell density [7] | response (contact inhibition, vacuolation) (T2Puro [8]) | sensitivity (contact inhibition, vacuolation) (T2Bc1-xL cells) | cell-cell junctions in monolayer zones (T2MycNick cells [9]) | also measured
1 | C[C@]12CCC(=O)C=C1CC[C@@H]1[C@@H]2[C@@H](O)C[C@@]2(C)[C@H]1CC[C@]2(O)C(=O)CO [HC001, Hydrocortisone] | about 20 μm | restored contact inhibition | no detectable effect | effectively suppressed; also recorded: suppress | induction of vacuolation | Reduction of final cell density | induction of vacuolation | Reduction of final cell density | induction of vacuolation | Reduction of final cell density | did not respond | did not confer sensitivity | restored | minimal effective concentration (T2MycNick cells [1]; Mus musculus, PI staining, read-out: Conc that reduces > 50% in the cell density): 0.156 µM; minimal effective concentration (T2MycNick cells [1]; Mus musculus, vacuolation covering no less than 10% of a random field, read-out: Min. effective conc. that elicits vacuolation): 0.156 µM; cellular proliferation and viability (T2MycNick cells [2]; 5 μM, grown in sub-confluence): did not affect; proliferation (MTT) (MycNick cells [3]): neither Hydrocortisone nor Cyclosporin A affected the proliferation
2 | C[C@@H]1C[C@H]2[C@@H]3CCC4=CC(=O)C=C[C@]4(C)[C@@]3(F)[C@@H](O)C[C@]2(C)[C@@]1(O)C(=O)CO [HC002, Dexamethasone] | about 20 μm | restored contact inhibition | no detectable effect | effectively suppressed; also recorded: suppress | induction of vacuolation | Reduction of final cell density | induction of vacuolation | Reduction of final cell density | induction of vacuolation | Reduction of final cell density | did not respond | did not confer sensitivity | restored | minimal effective concentration (T2MycNick cells [1]; PI staining, read-out: Conc that reduces > 50% in the cell density): 0.125 µM; minimal effective concentration (T2MycNick cells [1]; vacuolation covering no less than 10% of a random field, read-out: Min. effective conc. that elicits vacuolation): 0.125 µM; viability (Trypan blue exclusion) (T2MycNick cells [2]; 2 μM, confluence of 10%, day 3): no effect; proliferation (relative live cell number) (T2MycNick cells [2]; sub-confluence, counted daily): no effect; viability (Trypan blue exclusion) (T2Puro [10]; 2 μM, confluence of 10%, day 3): no effect; proliferation (relative live cell number) (T2Puro [10]; sub-confluence, counted daily): no effect
